In patent US20220125878A1, “Compositions and Methods for Preventing the Interaction Between SARS-COV-2 and L-Sign” (priority 2020, published 2022):

Key:
[1] = test system: VSVG-type pseudo-typed virus; format: cell-based
[2] = test system: SARS-CoV-2-type pseudo-typed virus (CoV2-type); format: cell-based
[3] = biological target: T1, SARS-CoV-2 spike protein (Severe acute respiratory syndrome coronavirus 2, UniProt P0DTC2); format: binding
T1 construct: host or cells: HEK293T

[4] = test system: high-mannose type N-glycans on spike protein-expressing HEK293T cells; assay: Flow cytometry of GNL lectin binding to spike protein-expressing HEK293T cells; format: cell-based; settings: spike protein-expressing HEK293T cells treated with kifunensine 10 μM, 48 h
[5] = biological target: T2, human L-SIGN (Homo sapiens, UniProt Q9H2X3); assay: Flow cytometry of Spike/Fc binding to L-SIGN-expressing HEK293T cells; settings: EGTA 1 mM
T2 construct: host or cells: HEK293T
T2 sequence (Q9H2X3 1-399): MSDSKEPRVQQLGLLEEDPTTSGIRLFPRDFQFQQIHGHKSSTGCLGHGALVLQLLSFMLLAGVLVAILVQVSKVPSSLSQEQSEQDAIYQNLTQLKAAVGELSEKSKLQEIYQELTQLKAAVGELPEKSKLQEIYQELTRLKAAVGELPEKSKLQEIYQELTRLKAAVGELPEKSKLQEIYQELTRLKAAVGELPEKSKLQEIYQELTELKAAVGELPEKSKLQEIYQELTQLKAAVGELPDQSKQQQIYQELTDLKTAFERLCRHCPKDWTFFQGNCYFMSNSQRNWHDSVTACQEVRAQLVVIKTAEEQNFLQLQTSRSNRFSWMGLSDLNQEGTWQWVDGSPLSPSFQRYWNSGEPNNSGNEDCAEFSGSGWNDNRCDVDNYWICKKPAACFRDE

mannan
blocking of control VSVG-type infection (% infection efficiency) [1]: but not control VSVG-type infection
blocking of L-SIGN-mediated CoV2-type infection (% infection efficiency) [2]: dose-dependently blocked
inhibition of L-SIGN/Fc binding to spike protein-expressing HEK293T cells [3]: inhibited

O=C1N[C@@H]2[C@@H](O)[C@@H](O)[C@H](O)[C@@H](CO)N2C1=O [Kifunensine]
effect of treatment on binding of spike protein to L-SIGN/Fc [3]: enhanced
effect of treatment on binding of spike protein to GNL [4]: enhanced

O=C(O)CN(CCOCCOCCN(CC(=O)O)CC(=O)O)CC(=O)O [EGTA]
blocking of the interaction of Spike/Fc with L-SIGN [5]: blocked
inhibition of L-SIGN/Fc binding to spike protein-expressing HEK293T cells [3]: inhibited
